Test results reported in patent publication US6124136A, “Method of monitoring compliance with methadone treatment program” (U. D. Testing, Inc., priority 1993, dated 2000).
“And” between values parts separate entries of the source, which are not always exact repeats. Equal values may be shown once.

Tests used:
[1] = Clinical course of migraine/headache in chronic pain patients (Cases #1 and #2); format: in vivo, human
[2] = tested on: mu-receptor subfamily of opioid cell membrane binding/transduction sites; conditions: cited from earlier work
[3] = Urinary parameter-normalized urine methadone concentration, nu
[4] = Renal clearance / renal excretion of methadone from timed urine collections; conditions: as a function of urine volume production rate; 12 control subjects
[5] = Plasma methadone concentration, p, calculated from spot urine (urine methadone, pH and specific gravity); conditions: patient one, Tables 3 and 4, barbiturate-containing compounds discontinued
[6] = Plasma methadone concentration versus daily oral methadone dose (FIG. 6, 8300 urine samples from 150 patients); conditions: human, 70 mg/day

CCC(=O)C(CC(C)N(C)C)(c1ccccc1)c1ccccc1 (centres unmarked) [methadone]
stress-related headaches ([1]; patient one, 130 mg per day): slowly decreasing in severity and frequency
migraines ([1]; patient one, stabilized on 130 mg per day, plasma level above 135 ng/ml): ceased completely
migraine frequency and severity ([1]; patient two, gradual titration to 35 mg of methadone): slowly decayed in frequency and severity
action at mu-receptor [2]: potent, and nearly pure (no interfering metabolites), agonist
urinary parameter-normalized urine methadone concentration, nu ([3]; Table 1, compliant patient, dose 60): 7448 and 9473
urinary parameter-normalized urine methadone concentration, nu, mean ([3]; Table 1, mean of 12 tests, dose 60-70): 7427
urinary parameter-normalized urine methadone concentration, nu, mean ([3]; Table 2, patient two, mean of 12 tests, dose 45): 17936
urinary parameter-normalized urine methadone concentration, nu ([3]; Table 3, patient one (prior barbiturate use), 1991, dose 50): 2924
urinary parameter-normalized urine methadone concentration, nu ([3]; Table 3, patient one (prior barbiturate use), 1991, dose 65): 1367 and 911
urinary parameter-normalized urine methadone concentration, nu ([3]; Table 3, patient one (prior barbiturate use), 1991, dose 80): 1070
urinary parameter-normalized urine methadone concentration, nu, mean ([3]; Table 3, patient one, mean of 12 tests, dose 40-100): 1591
urinary parameter-normalized urine methadone concentration, nu ([3]; Table 4, patient one, barbiturates discontinued, 1992, dose 110): 6580 and 6703 and 10880 and 6025
urinary parameter-normalized urine methadone concentration, nu ([3]; Table 4, patient one, barbiturates discontinued, 1992, dose 120): 8970 and 6778 and 8074 and 11966 and 6031
urinary parameter-normalized urine methadone concentration, nu ([3]; Table 4, patient one, barbiturates discontinued, 1992, dose 130): 7728 and 5944 and 5117
urinary parameter-normalized urine methadone concentration, nu, mean ([3]; Table 4, patient one, mean of 12 tests, dose 110-130): 7566
urinary parameter-normalized urine methadone concentration, nu, mean ([3]; Table 6, Case #4, mean, dose 120-140): 6874
Pred (flag: nu outside acceptable statistical range) ([3]; Table 6, Case #4, dose 140): High
urinary parameter-normalized urine methadone concentration, nu, mean ([3]; Table 7, Case #5, mean of 13 tests, dose 130): 14502
Pred (flag: nu outside acceptable statistical range) ([3]; Table 7, Case #5, dose 130): LOW and HIGH
renal excretion rate during a typical day [4]: relatively constant
plasma methadone levels over time [5]: increased in this patient over time
concentration at 24 h [6]: 200 ng/mL

Oc1ccc2c3c1O[C@H]1[C@@H](O)CC[C@@]4(O)[C@@H](C2)N(CC2CCC2)CC[C@]314 [nalbuphine]
control of pain ([1]; patient one, self-administered IM, before methadone): failure
